Results on eight molecules are retold here after PMC12336824 (The Journal of Biological Chemistry, 2025).

Molecules are shown by their SMILES. Converted amounts (≈) assume the structure as drawn. Where two headings read alike, the source gives them in different places.

For one data set, the target named is V. cholerae NQR complex (Vibrio cholerae serotype O1, UniProt Q9KPS2+Q9X4Q6). Kind of data set: biochemical. The settings on record: read-out: inhibition of the ubiquinone reductase activity.
In another data set the test system is V. cholerae wildtype. The arrangement: species or system mice. The settings on record: mouse, in vivo.
Data set [1] concerns V. cholerae O395. Kind of data set: microbe, parasite or virus in culture. The following applies: for effect on growth of V. cholerae: 50 μM, midlogarithmic phase (8 h), LB medium; for MIC50: 8 h. It counts as cell-based.
Data set [2] has as its system wildtype V. cholerae membranes. The class given is biochemical. The settings on record: 50 μM.
For data set [3] the following is noted: human.
Another data set deals with V. cholerae 2012EL-2176. The data set is described as follows: microbe, parasite or virus in culture. It counts as cell-based. The settings on record: Vibrio cholerae.
For data set [4] the following is noted: cited from earlier work.
Data set [5] has as its system NADH dehydrogenases of V. cholerae membranes. The class given is biochemical. The settings on record: 50 μM, 200 μM NADH.
The next data set deals with V. cholerae 2010EL-1786. Kind of data set: microbe, parasite or virus in culture. The class given is cell-based. The following applies: Vibrio cholerae.
The test system of the next data set is terminal oxidases. It counts as biochemical. The following applies: 50 μM inhibitor, 50 μM UQ-1.
Data set [6] deals with NDH-2. The class given is biochemical. The following applies: 50 μM.
For data set [7], the system named is V. cholerae O395. Kind of data set: In vitro infection of T84 human intestinal cells, CFU of adherent and planktonic bacteria. The class given is cell-based. The settings on record: Vibrio cholerae.
For data set [8] the following is noted: single oral dose 25 mg/kg, M. tuberculosis infection model ref 31; cited from earlier work.
The test system of the next data set is cholera toxin. The data set is described as follows: microbe, parasite or virus in culture. The class given is cell-based, Vibrio cholerae.
The test system of data set [9] is NDH-2. It counts as biochemical. The following applies: 50 μM. This is another data set of the same source.

What is called inhibition is how much of the control response was suppressed. Regarding `CC(CN1c2ccccc2Sc2ccccc21)N(C)C` (centres unmarked) [promethazine], the inhibition at 50 µM at V. cholerae NQR complex (50 μM) was 20 to 40%.

Consider `CC1(C)S[C@@H]2[C@H](NC(=O)[C@H](N)c3ccccc3)C(=O)N2[C@H]1C(=O)O` [ampicillin], for which the “survival of infected mice” value in the data set on V. cholerae wildtype is listed as “almost twice”.

As to `CN(C)CCCN1c2ccccc2Sc2ccc(Cl)cc21` [chlorpromazine], the “effect on growth of V. cholerae” value with V. cholerae O395 [1] was “antimicrobial properties”. In addition, at V. cholerae NQR complex, the inhibition at 50 µM was 20 to 40%.

As for `CC(C)/N=c1\cc2n(-c3ccc(Cl)cc3)c3ccccc3nc-2cc1Nc1ccc(Cl)cc1` [clofazimine], in data set [2], the “sensitivity of activity of wildtype membranes” value is listed as “sensitive”. Further, in the data set on V. cholerae wildtype, the “survival of infected mice” value was “to the same extent as ampicillin”. For the same molecule, in data set [3], the “estimated concentration that can reach the proximal section of the small intestine” value was “around 150 μM”. Besides, the “effect on growth of V. cholerae” value in the data set with V. cholerae O395 [1] is listed as “strong inhibitory effects”. Also, the MIC with V. cholerae O395 [1] (Vibrio cholerae) was found to be 5 µM (≈ 2.37 µg/mL); in the data set with V. cholerae 2012EL-2176 it was 16 µM (≈ 7.57 µg/mL); against V. cholerae 2010EL-1786, 16 µM (≈ 7.57 µg/mL). Besides, in the data set on V. cholerae O395 [1] (Vibrio cholerae), the MIC50 came to 3.4 ± 0.2 µM (≈ 1.61 µg/mL). The inhibition at 50 µM at V. cholerae NQR complex is 95%. The concentration in plasma entry in [4] was “submicromolar range”. Besides, the “inhibition of respiratory activity with NADH” value in data set [5] was “strong inhibitors”. For the same molecule, the “respiratory activity with ubiquinol-1” value in the data set on terminal oxidases is reported as “not sensitive”. Further, the “sensitivity of NADH-dependent ubiquinol reductase activity of Δnqr membranes” value in the data set with NDH-2 [6] is “insensitive”. Also, the inhibition at 30 µM in the data set with V. cholerae O395 [7] (O395, T84, read-out: inhibition of the number of attached cells) was above 75%; with V. cholerae O395 [7] (O395, T84, read-out: inhibition of the number of planktonic cells), above 90%; in the data set on cholera toxin (Vibrio cholerae, read-out: inhibition of cholera toxin production), 95%. The peak serum concentration in data set [8] was 0.43 µg/mL. Besides, the “inhibition of cholera toxin production” value in the data set with cholera toxin (30 µM) came out at 92%. Besides, in the data set on NDH-2 [9], the “inhibition of NDH-2 activity in membranes” value is “insensitive”.

Regarding `CN1CCN(CCCN2c3ccccc3Sc3ccc(Cl)cc32)CC1` [prochlorperazine], the “effect on growth of V. cholerae” value in the data set with V. cholerae O395 [1] is reported as “strong inhibitory effects”. The molecule also yielded an MIC50 with V. cholerae O395 [1] (Vibrio cholerae) of 24 ± 3 µM (≈ 8.97 µg/mL).

For `CN1CCN(CCCN2c3ccccc3Sc3ccc(C(F)(F)F)cc32)CC1` [trifluoperazine], the inhibition at 50 µM at V. cholerae NQR complex (50 μM) lay in the range of 20 to 40%.

Take `CSc1ccc2c(c1)N(CCC1CCCCN1C)c1ccccc1S2` (centres unmarked) [thioridazine]: the “effect on growth of V. cholerae” value with V. cholerae O395 [1] is given as “strong inhibitory effects”. The same molecule registered an MIC50 against V. cholerae O395 [1] (Vibrio cholerae) of 27 ± 2 µM (≈ 10 µg/mL). Moreover, in data set [5], the “inhibition of respiratory activity with NADH” value is “strong inhibitors”. Also, the “respiratory activity with ubiquinol-1” value with terminal oxidases was “not sensitive”. Moreover, the “inhibition of NDH-2 activity in membranes” value with NDH-2 [9] was “insensitive”.

`OCCN1CCN(CCCN2c3ccccc3Sc3ccc(Cl)cc32)CC1` [perphenazine]: the inhibition at 50 µM at V. cholerae NQR complex (50 μM) lay within 20 to 40%.
